Columns and labels:
[1] = test system: HCV genotype 1a (H77 strain) replicon in HUH-7 cells; assay: HCV replicon luciferase reporter assay, genotype 1a; type: cell-based; details: Hepatitis C virus, Huh-7, 72 h, HCV genotype 1a replicon luciferase, 3 days incubation, read-out: LE_1a (EC50, range)
Outline: (§1)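 Replicon inhibition for both genotypes was measured as Renilla luciferase signal (EnduRen, 7.5 μM final, 2 h) after 3-day, 37° C exposure of replicon-bearing HUH-7 cells in 4% FCS DMEM, 0.5% DMSO. The 1b construct carries S1179I; the 1a H77 construct carries P1496L and S2204I. Twenty-point, 3-fold dilutions were fitted four-parametrically for EC50, and CC50 was taken from multiplexed Cell Titer-Blue.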

[2] = test system: HCV genotype 1b (Con1) replicon in HUH-7 cells; assay: HCV replicon luciferase reporter assay, genotype 1b; type: cell-based; details: Hepatitis C virus, Huh-7, 72 h, HCV genotype 1b replicon luciferase, 3 days incubation, read-out: LE_1b (EC50, range)
Outline: as §1

Row | SMILES | EC50 [1] [nM] | EC50 [2] [nM]
1 | COc1ccc2c(O[C@@H]3C[C@H]4C(=O)N[C@]5(C(=O)NS(=O)(=O)C6(C)CC6)C[C@H]5/C=C\CC[C@H](C)C[C@@H](C)[C@H](NC(=O)c5ccc(N(C)C)cc5)C(=O)N4C3)nccc2c1 [Compound 5180, (2R,6S,7R,9S,13aS,14aR,16aS,Z)-6-(4-(dimethylamino)benzamido)-2-((6-methoxyisoquinolin-1-yl)oxy)-7,9-dimethyl-N-((1-methylcyclopropyl)sulfonyl)-5,16-dioxo-1,2,3,5,6,7,8,9,10,11,13a,14,14a,15,16,16a-hexadecahydrocyclopropa[e]pyrrolo[1,2-a][1,4]diazacyclopentadecine-14a-carboxamide] | < 5.46 | < 5.46
2 | COc1ccc2c(O[C@@H]3C[C@H]4C(=O)N[C@]5(C(=O)NS(=O)(=O)C6(C)CC6)C[C@H]5/C=C\CC[C@@H](C)C[C@@H](C)[C@H](NC(=O)c5ccc(N(C)C)cc5)C(=O)N4C3)nccc2c1 [Compound 5181, (2R,6S,7R,9R,13aS,14aR,16aS,Z)-6-(4-(dimethylamino)benzamido)-2-((6-methoxyisoquinolin-1-yl)oxy)-7,9-dimethyl-N-((1-methylcyclopropyl)sulfonyl)-5,16-dioxo-1,2,3,5,6,7,8,9,10,11,13a,14,14a,15,16,16a-hexadecahydrocyclopropa[e]pyrrolo[1,2-a][1,4]diazacyclopentadecine-14a-carboxamide] | < 5.46 | < 5.46
3 | C[C@H]1CC/C=C\[C@@H]2C[C@@]2(C(=O)NS(=O)(=O)C2CC2)NC(=O)[C@@H]2C[C@@H](Oc3nc4ccccc4c4ccccc34)CN2C(=O)[C@@H](NC(=O)OC(C)(C)C)[C@H](C)C1 [Compound 5182, tert-butyl ((2R,6S,7R,9S,13aS,14aR,16aS,Z)-14a-((cyclopropylsulfonyl)carbamoyl)-7,9-dimethyl-5,16-dioxo-2-(phenanthridin-6-yloxy)-1,2,3,5,6,7,8,9,10,11,13a,14,14a,15,16,16a-hexadecahydrocyclopropa[e]pyrrolo[1,2-a][1,4]diazacyclopentadecin-6-yl)carbamate] | < 5.46 | < 5.46
4 | C[C@@H]1CC/C=C\[C@@H]2C[C@@]2(C(=O)NS(=O)(=O)C2CC2)NC(=O)[C@@H]2C[C@@H](Oc3nc4ccccc4c4ccccc34)CN2C(=O)[C@@H](NC(=O)OC(C)(C)C)[C@H](C)C1 [Compound 5183, tert-butyl ((2R,6S,7R,9R,13aS,14aR,16aS,Z)-14a-((cyclopropylsulfonyl)carbamoyl)-7,9-dimethyl-5,16-dioxo-2-(phenanthridin-6-yloxy)-1,2,3,5,6,7,8,9,10,11,13a,14,14a,15,16,16a-hexadecahydrocyclopropa[e]pyrrolo[1,2-a][1,4]diazacyclopentadecin-6-yl)carbamate] | < 5.46 | < 5.46
5 | C[C@@H]1CC/C=C\[C@@H]2C[C@@]2(C(=O)NS(=O)(=O)C2CC2)NC(=O)C2C[C@@H](Oc3nc4ccccc4c4ccccc34)CN2C(=O)[C@@H](NC(=O)OC(C)(C)C(F)(F)F)[C@H](C)C1 (stereo partly drawn) [Compound 5185, 1,1,1-trifluoro-2-methylpropan-2-yl((2R,6S,7R,9R,13aS,14aR,16aS,Z)-14a-((cyclopropylsulfonyl)carbamoyl)-7,9-dimethyl-5,16-dioxo-2-(phenanthridin-6-yloxy)-1,2,3,5,6,7,8,9,10,11,13a,14,14a,15,16,16a-hexadecahydrocyclopropa[e]pyrrolo[1,2-a][1,4]diazacyclopentadecin-6-yl)carbamate] | < 5.46 | < 5.46
6 | COc1ccc2c(O[C@@H]3C[C@H]4C(=O)N[C@]5(C(=O)NS(=O)(=O)C6CC6)C[C@H]5/C=C\CC[C@H](C)C[C@@H](C)[C@H](NC(=O)OC(C)(C)C)C(=O)N4C3)nc(-c3ccccc3)cc2c1 [Compound 5186, tert-butyl ((2R,6S,7R,9S,13aS,14aR,16aS,Z)-14a-((cyclopropylsulfonyl)carbamoyl)-2-((6-methoxy-3-phenylisoquinolin-1-yl)oxy)-7,9-dimethyl-5,16-dioxo-1,2,3,5,6,7,8,9,10,11,13a,14,14a,15,16,16a-hexadecahydrocyclopropa[e]pyrrolo[1,2-a][1,4]diazacyclopentadecin-6-yl)carbamate] | < 5.46 | < 5.46
7 | COc1ccc2c(O[C@@H]3C[C@H]4C(=O)N[C@]5(C(=O)NS(=O)(=O)C6CC6)C[C@H]5/C=C\CC[C@@H](C)C[C@@H](C)[C@H](NC(=O)O[C@@H]5C[C@@H]6C[C@@H]6C5)C(=O)N4C3)nc(-c3ccccc3)cc2c1 [Compound 5188, (1R,3r,5S)-bicyclo[3.1.0]hexan-3-yl((2R,6S,7R,9R,13aS,14aR,16aS,Z)-14a-((cyclopropylsulfonyl)carbamoyl)-2-((6-methoxy-3-phenylisoquinolin-1-yl)oxy)-7,9-dimethyl-5,16-dioxo-1,2,3,5,6,7,8,9,10,11,13a,14,14a,15,16,16a-hexadecahydrocyclopropa[e]pyrrolo[1,2-a][1,4]diazacyclopentadecin-6-yl)carbamate] | < 5.46 | < 5.46
8 | COc1ccc2c(O[C@@H]3C[C@H]4C(=O)N[C@]5(C(=O)NS(=O)(=O)C6CC6)C[C@H]5/C=C\CC[C@H](C)C[C@@H](C)[C@H](NC(=O)O[C@@H]5C[C@@H]6C[C@@H]6C5)C(=O)N4C3)nc(-c3ccccc3)cc2c1 [Compound 5189, (1R,3r,5S)-bicyclo[3.1.0]hexan-3-yl((2R,6S,7R,9S,13aS,14aR,16aS,Z)-14a-((cyclopropylsulfonyl)carbamoyl)-2-((6-methoxy-3-phenylisoquinolin-1-yl)oxy)-7,9-dimethyl-5,16-dioxo-1,2,3,5,6,7,8,9,10,11,13a,14,14a,15,16,16a-hexadecahydrocyclopropa[e]pyrrolo[1,2-a][1,4]diazacyclopentadecin-6-yl)carbamate] | < 5.46 | < 5.46
9 | COc1ccc2c(O[C@@H]3C[C@H]4C(=O)N[C@]5(C(=O)NS(=O)(=O)C6CC6)C[C@H]5/C=C\CC[C@H](C)C[C@@H](C)[C@H](NC(=O)OC(C)(C)C(F)(F)F)C(=O)N4C3)nc(-c3ccccc3)cc2c1 [Compound 5191, 1,1,1-trifluoro-2-methylpropan-2-yl((2R,6S,7R,9S,13aS,14aR,16aS,Z)-14a-((cyclopropylsulfonyl)carbamoyl)-2-((6-methoxy-3-phenylisoquinolin-1-yl)oxy)-7,9-dimethyl-5,16-dioxo-1,2,3,5,6,7,8,9,10,11,13a,14,14a,15,16,16a-hexadecahydrocyclopropa[e]pyrrolo[1,2-a][1,4]diazacyclopentadecin-6-yl)carbamate] | < 5.46 | < 5.46
10 | COc1ccc2c(O[C@@H]3C[C@H]4C(=O)N[C@]5(C(=O)NS(=O)(=O)C6CC6)C[C@H]5/C=C\CC[C@H](C)C[C@@H](C)[C@H](NC(=O)OC(C)(C)C)C(=O)N4C3)nc(-c3ccc(N4CCOCC4)cc3)cc2c1 [Compound 5192, tert-butyl ((2R,6S,7R,9S,13aS,14aR,16aS,Z)-14a-((cyclopropylsulfonyl)carbamoyl)-2-((6-methoxy-3-(4-morpholinophenyl)isoquinolin-1-yl)oxy)-7,9-dimethyl-5,16-dioxo-1,2,3,5,6,7,8,9,10,11,13a,14,14a,15,16,16a-hexadecahydrocyclopropa[e]pyrrolo[1,2-a][1,4]diazacyclopentadecin-6-yl)carbamate] | < 5.46 | < 5.46
11 | COc1ccc2c(O[C@@H]3C[C@H]4C(=O)N[C@]5(C(=O)NS(=O)(=O)C6CC6)C[C@H]5/C=C\CC[C@@H](C)C[C@@H](C)[C@H](NC(=O)OC(C)(C)C)C(=O)N4C3)nc(-c3ccc(N4CCOCC4)cc3)cc2c1 [Compound 5193, tert-butyl ((2R,6S,7R,9R,13aS,14aR,16aS,Z)-14a-((cyclopropylsulfonyl)carbamoyl)-2-((6-methoxy-3-(4-morpholinophenyl)isoquinolin-1-yl)oxy)-7,9-dimethyl-5,16-dioxo-1,2,3,5,6,7,8,9,10,11,13a,14,14a,15,16,16a-hexadecahydrocyclopropa[e]pyrrolo[1,2-a][1,4]diazacyclopentadecin-6-yl)carbamate] | < 5.46 | < 5.46
12 | COc1ccc2c(O[C@@H]3C[C@H]4C(=O)N[C@]5(C(=O)NS(=O)(=O)C6CC6)C[C@H]5/C=C\CC[C@H](C)C[C@@H](C)[C@H](NC(=O)OC5C[C@@H]6C[C@@H]6C5)C(=O)N4C3)nc(-c3ccc(N4CCOCC4)cc3)cc2c1 (stereo partly drawn) [Compound 5194, (1R,3r,5S)-bicyclo[3.1.0]hexan-3-yl((2R,6S,7R,9S,13aS,14aR,16aS,Z)-14a-((cyclopropylsulfonyl)carbamoyl)-2-((6-methoxy-3-(4-morpholinophenyl)isoquinolin-1-yl)oxy)-7,9-dimethyl-5,16-dioxo-1,2,3,5,6,7,8,9,10,11,13a,14,14a,15,16,16a-hexadecahydrocyclopropa[e]pyrrolo[1,2-a][1,4]diazacyclopentadecin-6-yl)carbamate] | < 5.46 | < 5.46
13 | COc1ccc2c(O[C@@H]3C[C@H]4C(=O)N[C@]5(C(=O)NS(=O)(=O)C6CC6)C[C@H]5/C=C\CC[C@@H](C)C[C@@H](C)[C@H](NC(=O)OC5C[C@@H]6C[C@@H]6C5)C(=O)N4C3)nc(-c3ccc(N4CCOCC4)cc3)cc2c1 (stereo partly drawn) [Compound 5195, (1R,3r,5S)-bicyclo[3.1.0]hexan-3-yl((2R,6S,7R,9R,13aS,14aR,16aS,Z)-14a-((cyclopropylsulfonyl)carbamoyl)-2-((6-methoxy-3-(4-morpholinophenyl)isoquinolin-1-yl)oxy)-7,9-dimethyl-5,16-dioxo-1,2,3,5,6,7,8,9,10,11,13a,14,14a,15,16,16a-hexadecahydrocyclopropa[e]pyrrolo[1,2-a][1,4]diazacyclopentadecin-6-yl)carbamate] | < 5.46 | < 5.46
